The results in this text go back to patent US8153653B2, “Amido-tropane derivatives” (Hoffmann-La Roche Inc., priority 2010, dated 2012).

The assay concerns the target T1, mGlyT-1b (Mus musculus, UniProt P28571).
T1 construct: host or cells: Flp-in-CHO cells, stably transfected
T1 sequence (P28571 1-651 isoform P28571-2): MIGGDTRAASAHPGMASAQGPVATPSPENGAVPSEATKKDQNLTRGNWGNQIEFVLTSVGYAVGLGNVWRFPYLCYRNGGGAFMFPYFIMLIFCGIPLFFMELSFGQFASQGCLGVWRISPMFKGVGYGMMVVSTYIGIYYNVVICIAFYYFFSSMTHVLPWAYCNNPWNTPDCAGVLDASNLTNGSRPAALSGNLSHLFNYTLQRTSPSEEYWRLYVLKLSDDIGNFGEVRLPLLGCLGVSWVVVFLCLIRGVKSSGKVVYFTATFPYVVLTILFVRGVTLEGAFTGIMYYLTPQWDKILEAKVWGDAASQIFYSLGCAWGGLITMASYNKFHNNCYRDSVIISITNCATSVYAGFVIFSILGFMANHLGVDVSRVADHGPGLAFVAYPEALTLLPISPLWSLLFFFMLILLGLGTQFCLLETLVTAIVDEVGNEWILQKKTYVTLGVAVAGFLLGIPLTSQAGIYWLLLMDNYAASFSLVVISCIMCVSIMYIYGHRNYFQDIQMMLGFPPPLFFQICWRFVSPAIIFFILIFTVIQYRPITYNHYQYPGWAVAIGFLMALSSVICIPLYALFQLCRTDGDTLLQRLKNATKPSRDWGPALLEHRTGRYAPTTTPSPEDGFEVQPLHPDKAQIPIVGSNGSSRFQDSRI
The assay can be described thus: Glycine Uptake Inhibition Assay (mGlyT-1b). The assay is classed as cell-based. To be noted: [3H]-glycine uptake in Flp-in-CHO cells stably transfected with mGlyT-1b cDNA; 20 min preincubation at 22° C. On the procedure:
DMEM complete medium: Nutrient mixture F-12 (Gibco Life-technologies), fetal bovine serum (FBS) 5%, (Gibco life technologies), Penicillin/Streptomycin 1% (Gibco life technologies), Hygromycin 0.6 mg/ml (Gibco life technologies), Glutamine 1 mM Gibco life technologies) Uptake buffer (UB): 150 mM NaCl, 10 mM Hepes-Tris, pH 7.4, 1 mM CaCl2, 2.5 mM KCl, 2.5 mM MgSO4, 10 mM (+) D-glucose. Flp-in™-CHO (Invitrogen Cat n° R758-07) cells stably transfected with mGlyT1b cDNA.
Glycine Uptake Inhibition Assay (mGlyT-1b)
On day 1 mammalian cells, (Flp-in™-CHO), transfected with mGlyT-1b cDNA, were plated at the density of 40,000 cells/well in complete F-12 medium, without hygromycin in 96-well culture plates. On day 2, the medium was aspirated and the cells were washed twice with uptake buffer (UB). The cells were then incubated for 20 min at 22° C. with either (i) no potential competitor, (ii) 10 mM non-radioactive glycine, (iii) a concentration of a potential inhibitor. A range of concentrations of the potential inhibitor was used to generate data for calculating the concentration of inhibitor resulting in 50% of the effect (e.g. IC50, the concentration of the competitor inhibiting glycine uptake of 50%). A solution was then immediately added containing [^3H]-glycine 60 nM (11-16 Ci/mmol) and 25 μM non-radioactive glycine. The plates were incubated with gentle shaking and the reaction was stopped by aspiration of the mixture and washing (three times) with ice-cold UB. The cells were lysed with scintillation liquid, shaken 3 hours and the radioactivity in the cells was counted using a scintillation counter.
`COc1cc(C(F)(F)F)cc(SC)c1C(=O)N[C@@]1(c2ccccc2)CC[C@@H]2CC[C@H]1N2C` (racemic) [Example 1, 2-Methoxy-N-((1RS,2RS,5SR)-8-methyl-2-phenyl-8-aza-bicyclo[3.2.1]oct-2-yl)-6-methylsulfanyl-4-trifluoromethyl-benzamide] gave an IC50 of 14 nM.

As for `COc1cc(C(F)(F)F)cc(SC)c1C(=O)N[C@@]1(c2ccccc2)CC[C@@H]2CC[C@H]1N2C` (racemic) [Example 3, 2-Methoxy-N-((1R,2R,5S)-8-methyl-2-phenyl-8-aza-bicyclo[3.2.1]oct-2-yl)-6-methylsulfanyl-4-trifluoromethyl-benzamide], 8 nM corresponded to half-maximal inhibition (IC50).

`CN1[C@H]2CC[C@@H]1[C@](NC(=O)c1ccc(C(F)(F)F)cc1C1CC1)(c1ccccc1)CC2` (racemic) [Example 4, 2-Cyclopropyl-N-((1RS,2RS,5SR)-8-methyl-2-phenyl-8-aza-bicyclo[3.2.1]oct-2-yl)-4-trifluoromethyl-benzamide] registered an IC50 of 8 nM.

Turning to `CCc1cc(C(F)(F)F)cc(OC)c1C(=O)N[C@@]1(c2ccccc2)CC[C@@H]2CC[C@H]1N2C` (racemic) [Example 13, 2-Ethyl-6-methoxy-N-((1RS,2RS,5SR)-8-methyl-2-phenyl-8-aza-bicyclo[3.2.1]oct-2-yl)-4-trifluoromethyl-benzamide], the IC50 was 14 nM.

`CCc1cc(C(F)(F)F)ccc1C(=O)N[C@]1(c2ccccc2)CC[C@H]2CC[C@@H]1N2C` (stereo in doubt) [Example 5, 2-Ethyl-N-((1S,2S,5R) or (1R,2R,5S)-8-methyl-2-phenyl-8-aza-bicyclo[3.2.1]oct-2-yl)-4-trifluoromethyl-benzamide] returned an IC50 of 19 nM.

`CCc1cc(C(F)(F)F)ccc1C(=O)N[C@@]1(c2ccccc2)CC[C@@H]2CC[C@H]1N2C` (stereo in doubt) [Example 6, 2-Ethyl-N-((1R,2R,5S) or (1S,2S,5R)-8-methyl-2-phenyl-8-aza-bicyclo[3.2.1]oct-2-yl)-4-trifluoromethyl-benzamide] displayed an IC50 of 31 nM.

For `COc1cc(C(F)(F)F)cc(C)c1C(=O)N[C@@]1(c2ccccc2)CC[C@@H]2CC[C@H]1N2C` (stereo in doubt) [Example 7, 2-Methoxy-6-methyl-N-((1RS,2RS,5SR)-8-methyl-2-phenyl-8-aza-bicyclo[3.2.1]oct-2-yl)-4-trifluoromethyl-benzamide], the IC50 was 6 nM.

For `COc1cc(C(F)(F)F)cc(C)c1C(=O)N[C@]1(c2ccccc2)CC[C@H]2CC[C@@H]1N2C` (stereo in doubt) [Example 8, 2-Methoxy-6-methyl-N-((1S,2S,5R) or (1R,2R,5S)-8-methyl-2-phenyl-8-aza-bicyclo[3.2.1]oct-2-yl)-4-trifluoromethyl-benzamide], it took 20 nM to reach half-maximal inhibition (IC50).

`COc1cc(C(F)(F)F)cc(C)c1C(=O)N[C@@]1(c2ccccc2)CC[C@@H]2CC[C@H]1N2C` (stereo in doubt) [Example 9, 2-Methoxy-6-methyl-N-((1R,2R,5S) or (1S,2S,5R)-8-methyl-2-phenyl-8-aza-bicyclo[3.2.1]oct-2-yl)-4-trifluoromethyl-benzamide] displayed an IC50 of 20 nM.

For `COc1cc(C(F)(F)F)cc(C2CC2)c1C(=O)N[C@@]1(c2ccccc2)CC[C@@H]2CC[C@H]1N2C` (stereo in doubt) [Example 10, 2-Cyclopropyl-6-methoxy-N-((1RS,2RS,5SR)-8-methyl-2-phenyl-8-aza-bicyclo[3.2.1]oct-2-yl)-4-trifluoromethyl-benzamide], 4 nM corresponded to half-maximal inhibition (IC50).

The compound `COc1cc(C(F)(F)F)cc(C2CC2)c1C(=O)N[C@]1(c2ccccc2)CC[C@H]2CC[C@@H]1N2C` (stereo in doubt) [Example 11, 2-Cyclopropyl-6-methoxy-N-((1S,2S,5R) or (lR,2R.5S)-8-methyl-2-phenyl-8-aza-bicyclo[3.2.1]oct-2-yl)-4-trifluoromethyl-benzamide] displayed an IC50 of 6 nM.

Compound `COc1cc(C(F)(F)F)cc(C2CC2)c1C(=O)N[C@@]1(c2ccccc2)CC[C@@H]2CC[C@H]1N2C` (stereo in doubt) [Example 12, 2-Cyclopropyl-6-methoxy-N-((1R,2R,5S) or (1S,2S,5R)-8-methyl-2-phenyl-8-aza-bicyclo[3.2.1]oct-2-yl)-4-trifluoromethyl-benzamide] registered an IC50 of 6 nM.

For the compound `COc1cc(C(F)(F)F)cc(SC)c1C(=O)N[C@]1(c2ccccc2)CC[C@H]2CC[C@@H]1N2C` [Example 2, 2-Methoxy-N-((1S,2S,5R)-8-methyl-2-phenyl-8-aza-bicyclo[3.2.l]oct-2-yl)-6-methylsulfanyl-4-trifluoromethyl-benzamide], half-maximal inhibition (IC50) required 21 nM.

What is called IC50 is the concentration that gives 50% inhibition. High values mean lower potency, low ones higher potency.
